Assay [1] concerns the target T1, Mre11^HLH-Rad50^NBD (Pyrococcus furiosus, UniProt P58301, DEL196-708).
T1 construct: Mre11 helix-loop-helix aa344-426; His and NusA-His tags removed with TEV; E. coli; monomeric without nucleotide; with DNA double-strand break repair protein Mre11
The experiment in a line: fluorescence polarization competition with BODIPY FL ATP. Format: binding.

In the next assay the target is T2, Mre11_2-Rad50^NBD2 (Pyrococcus furiosus, UniProt P58301, DEL196-708).
T2 construct: about 160 kDa; E. coli; with DNA double-strand break repair protein Mre11
The experiment in a line: 2-aminopurine DNA exonuclease fluorescence. It counts as biochemical. As to conditions: 1 mM AMP-PNP, 1 mM MnCl2, 5 mM MgCl2, 50 mM Tris pH 7.5, 60 °C; allosteric via Rad50.

In assay [2] the target is T3, Mre11^HLH-Rad50^NBD (Pyrococcus furiosus, UniProt P58301, DEL196-708/R805E).
T3 construct: Mre11 helix-loop-helix aa344-426; His and NusA-His tags removed with TEV; E. coli; monomeric without nucleotide; with DNA double-strand break repair protein Mre11
As to the kind of experiment: fluorescence polarization competition with BODIPY FL ATP. Format: binding.

Structures are written as SMILES. Read-outs that look alike come from different tables or passages of the source.

T1 sequence (P58301 709-882, stated change not applied, other chains not shown): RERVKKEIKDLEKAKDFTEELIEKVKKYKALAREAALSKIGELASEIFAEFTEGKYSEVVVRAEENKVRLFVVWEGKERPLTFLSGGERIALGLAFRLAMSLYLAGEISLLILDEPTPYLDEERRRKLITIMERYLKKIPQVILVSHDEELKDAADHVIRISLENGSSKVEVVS
T1 sequence (P58301 1-195, stated change not applied, other chains not shown): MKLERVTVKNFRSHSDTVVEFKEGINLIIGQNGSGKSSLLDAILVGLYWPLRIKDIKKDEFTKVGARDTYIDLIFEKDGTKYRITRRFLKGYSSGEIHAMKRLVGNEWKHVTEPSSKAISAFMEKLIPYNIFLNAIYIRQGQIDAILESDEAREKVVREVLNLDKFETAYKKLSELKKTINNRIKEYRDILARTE
T2 sequence (P58301 709-882, stated change not applied): as the sequence (P58301 709-882, stated change not applied, other chains not shown) above
T2 sequence (P58301 1-195, stated change not applied): as the sequence (P58301 1-195, stated change not applied, other chains not shown) above
T3 sequence (P58301 709-882 R805E, other chains not shown): as the sequence (P58301 709-882, stated change not applied, other chains not shown) above, with R97E counted along it
T3 sequence (P58301 1-195, stated change not applied, other chains not shown): as the sequence (P58301 1-195, stated change not applied, other chains not shown) above

`Nc1ncnc2c1ncn2[C@@H]1O[C@H](COP(=O)(O)OP(=O)(O)O)[C@@H](O)[C@H]1O` [ADP]: the Ki on Mre11^HLH-Rad50^NBD [1] (read-out: KI,ADP) amounted to 6.5 µM.

With `Nc1ncnc2c1ncn2[C@@H]1O[C@H](COP(=O)(O)OP(=O)(O)NP(=O)(O)O)[C@@H](O)[C@H]1O` [AMP-PNP], the “reduction in Mre11 exonuclease activity” value on Mre11_2-Rad50^NBD2 is given as “non-hydrolyzable ATP analog AMP-PNP resulted in a dramatic reduction in exonuclease activity”.

In the case of `Nc1ncnc2c1ncn2[C@@H]1O[C@H](COP(=O)(O)OP(=O)(O)OP(=O)(O)O)[C@@H](O)[C@H]1O` [ATP], the Ki was 3 µM at Mre11^HLH-Rad50^NBD [2] and 9.8 µM at Mre11^HLH-Rad50^NBD [1].

The record behind these values is PMC5786021, “A dynamic allosteric pathway underlies Rad50 ABC ATPase function in DNA repair” (Scientific Reports, 2018).
